Key:
[1] = target: Death-associated protein kinase 3 (Homo sapiens, UniProt O43293); assay: Inhibition of human wild type ZIPK using RBER-GSK3([…] to […]) as substrate preincubated for 2 hrs followed by ATP addition and measured every 2 mins for […] by spectrophotometric analysis
[2] = target: Protein kinase C gamma type (Homo sapiens, UniProt P05129); assay: Inhibition of human wild type PKC gamma using 3xChocktide-PKC(19to 31) as substrate preincubated for 2 hrs followed by ATP addition and measured every 2 mins for […] by spectrophotometric analysis
Aurora kinase A = Aurora kinase A (Homo sapiens, UniProt O14965); assay: Inhibition of human wild type AuroraA using bio-4xCHKT as substrate preincubated for 2 hrs followed by ATP addition and measured every 2 mins for […] by spectrophotometric analysis
Chain of Aurora kinase A (O14965 whole entry): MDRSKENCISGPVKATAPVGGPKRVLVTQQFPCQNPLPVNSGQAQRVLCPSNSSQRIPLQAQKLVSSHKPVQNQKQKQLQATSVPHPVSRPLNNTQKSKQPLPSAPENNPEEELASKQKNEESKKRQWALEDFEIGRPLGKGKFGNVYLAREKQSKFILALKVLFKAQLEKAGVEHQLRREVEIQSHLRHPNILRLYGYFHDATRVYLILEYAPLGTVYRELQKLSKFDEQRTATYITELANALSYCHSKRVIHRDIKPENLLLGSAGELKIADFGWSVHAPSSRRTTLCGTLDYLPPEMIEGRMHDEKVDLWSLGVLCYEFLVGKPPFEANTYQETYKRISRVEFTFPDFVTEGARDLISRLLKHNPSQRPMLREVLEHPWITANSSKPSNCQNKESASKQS

[3] = target: Serine/threonine-protein kinase D2 (Homo sapiens, UniProt Q9BZL6); assay: Inhibition of human wild type PKD2 using RBER-CHKtide as substrate preincubated for 2 hrs followed by ATP addition and measured every 2 mins for […] by spectrophotometric analysis
Chain of Serine/threonine-protein kinase D2 (Q9BZL6 whole entry): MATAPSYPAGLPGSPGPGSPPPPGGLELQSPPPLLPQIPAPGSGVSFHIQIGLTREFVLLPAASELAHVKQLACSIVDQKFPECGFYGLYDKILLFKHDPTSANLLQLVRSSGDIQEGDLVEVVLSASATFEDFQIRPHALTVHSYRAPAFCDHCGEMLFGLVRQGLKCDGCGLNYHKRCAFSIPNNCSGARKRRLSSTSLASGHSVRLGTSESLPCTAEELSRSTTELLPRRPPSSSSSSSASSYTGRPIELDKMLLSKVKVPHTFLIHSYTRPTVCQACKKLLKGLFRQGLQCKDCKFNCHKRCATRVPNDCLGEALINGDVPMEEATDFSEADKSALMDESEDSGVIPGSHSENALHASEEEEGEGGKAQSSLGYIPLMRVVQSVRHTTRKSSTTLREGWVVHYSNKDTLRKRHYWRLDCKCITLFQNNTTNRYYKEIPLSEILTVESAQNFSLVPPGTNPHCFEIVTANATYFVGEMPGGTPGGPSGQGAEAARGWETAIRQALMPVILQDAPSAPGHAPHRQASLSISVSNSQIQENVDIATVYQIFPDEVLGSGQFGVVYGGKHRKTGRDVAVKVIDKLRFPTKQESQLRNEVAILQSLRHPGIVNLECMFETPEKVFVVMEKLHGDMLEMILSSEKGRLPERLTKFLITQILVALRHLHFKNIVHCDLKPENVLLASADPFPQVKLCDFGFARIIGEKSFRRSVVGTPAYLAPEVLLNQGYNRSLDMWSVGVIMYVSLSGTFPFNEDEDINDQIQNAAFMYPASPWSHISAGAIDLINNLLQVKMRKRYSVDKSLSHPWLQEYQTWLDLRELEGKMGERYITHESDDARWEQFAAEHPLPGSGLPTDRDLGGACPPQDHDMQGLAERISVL

[4] = target: Mitogen-activated protein kinase 14 (Homo sapiens, UniProt Q16539); assay: Inhibition of human wild type p38 alpha using ATF2 as substrate preincubated for 2 hrs followed by ATP addition and measured every 2 mins for […] by spectrophotometric analysis
[5] = Toxicity in Balb/c mouse assessed as hindlimb paralysis; conditions: in vivo
[6] = target: MAP kinase-interacting serine/threonine-protein kinase 1 (Homo sapiens, UniProt Q9BUB5); assay: Inhibition of human wild type MNK1 using RB-S6P as substrate preincubated for 2 hrs followed by ATP addition and measured every 2 mins for […] by spectrophotometric analysis
[7] = target: Tyrosine-protein kinase ITK/TSK (Homo sapiens, UniProt Q08881); assay: Inhibition of human wild type ITK using PolyEY as substrate preincubated for 2 hrs followed by ATP addition and measured every 2 mins for […] by spectrophotometric analysis
Chain of Tyrosine-protein kinase ITK/TSK (Q08881 whole entry): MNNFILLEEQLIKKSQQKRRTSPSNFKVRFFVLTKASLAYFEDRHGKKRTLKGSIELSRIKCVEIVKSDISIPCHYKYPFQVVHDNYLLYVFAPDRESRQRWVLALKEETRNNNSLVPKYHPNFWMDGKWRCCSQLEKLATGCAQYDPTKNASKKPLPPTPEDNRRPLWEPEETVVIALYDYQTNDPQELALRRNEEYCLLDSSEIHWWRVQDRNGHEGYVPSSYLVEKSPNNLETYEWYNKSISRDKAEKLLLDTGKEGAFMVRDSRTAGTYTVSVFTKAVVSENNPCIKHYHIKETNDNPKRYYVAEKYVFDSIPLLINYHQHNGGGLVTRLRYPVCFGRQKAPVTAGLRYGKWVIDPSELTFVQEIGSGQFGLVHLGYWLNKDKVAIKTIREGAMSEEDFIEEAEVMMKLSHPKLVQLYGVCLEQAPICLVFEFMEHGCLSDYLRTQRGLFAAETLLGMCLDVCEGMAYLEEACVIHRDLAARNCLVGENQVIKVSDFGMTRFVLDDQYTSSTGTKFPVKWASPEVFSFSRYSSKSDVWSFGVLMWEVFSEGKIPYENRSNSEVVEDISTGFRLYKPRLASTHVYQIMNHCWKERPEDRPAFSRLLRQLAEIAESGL

[8] = target: Serine/threonine-protein kinase WNK2 (Homo sapiens, UniProt Q9Y3S1); assay: Inhibition of human wild type WNK2 using RBER-CHKtide as substrate preincubated for 2 hrs followed by ATP addition and measured every 2 mins for […] by spectrophotometric analysis
[9] = target: Receptor tyrosine-protein kinase erbB-4 (Homo sapiens, UniProt Q15303); assay: Inhibition of human wild type HER4 using PolyEY as substrate preincubated for 2 hrs followed by ATP addition and measured every 2 mins for […] by spectrophotometric analysis
[10] = target: Receptor-interacting serine/threonine-protein kinase 2 (Homo sapiens, UniProt O43353); assay: Inhibition of human wild type RIPK2 using RBER-CHKtide as substrate preincubated for 2 hrs followed by ATP addition and measured every 2 mins for […] by spectrophotometric analysis
Chain of Receptor-interacting serine/threonine-protein kinase 2 (O43353 whole entry): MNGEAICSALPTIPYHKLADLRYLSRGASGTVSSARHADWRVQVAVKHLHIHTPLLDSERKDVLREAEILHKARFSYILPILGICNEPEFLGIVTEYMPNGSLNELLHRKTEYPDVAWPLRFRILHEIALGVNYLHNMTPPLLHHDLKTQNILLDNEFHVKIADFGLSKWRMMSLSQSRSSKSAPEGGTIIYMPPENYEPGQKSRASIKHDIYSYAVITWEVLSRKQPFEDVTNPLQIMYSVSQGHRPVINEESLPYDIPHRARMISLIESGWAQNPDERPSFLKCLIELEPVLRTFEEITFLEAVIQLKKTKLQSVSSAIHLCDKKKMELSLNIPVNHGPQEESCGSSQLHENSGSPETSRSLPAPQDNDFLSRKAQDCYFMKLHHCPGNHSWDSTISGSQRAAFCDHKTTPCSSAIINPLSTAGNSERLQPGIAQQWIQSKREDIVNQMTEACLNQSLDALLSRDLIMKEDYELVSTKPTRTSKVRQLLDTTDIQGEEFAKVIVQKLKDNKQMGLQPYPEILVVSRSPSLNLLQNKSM

[11] = target: Tyrosine-protein kinase Srms (Homo sapiens, UniProt Q9H3Y6); assay: Inhibition of human wild type SRMS using PolyEY as substrate preincubated for 2 hrs followed by ATP addition and measured every 2 mins for […] by spectrophotometric analysis
[12] = target: Mitogen-activated protein kinase kinase kinase 8 (Homo sapiens, UniProt P41279); assay: Inhibition of human wild type COT1 using RBER-CHKtide as substrate preincubated for 2 hrs followed by ATP addition and measured every 2 mins for […] by spectrophotometric analysis
[13] = target: Mitogen-activated protein kinase kinase kinase kinase 2 (Homo sapiens, UniProt Q12851); assay: Inhibition of human wild type GCK using Chocktide-PKC(19t o 31) as substrate preincubated for 2 hrs followed by ATP addition and measured every 2 mins for […] by spectrophotometric analysis
[14] = target: Phosphorylase b kinase gamma catalytic chain, skeletal muscle/heart isoform (Homo sapiens, UniProt Q16816); assay: Inhibition of human wild type PHKgamma1 using 3xChocktide-PKC([…]-[…]) as substrate preincubated for 2 hrs followed by ATP addition and measured every 2 mins for […] by spectrophotometric analysis
[15] = target: Macrophage-stimulating protein receptor (Homo sapiens, UniProt Q04912); assay: Inhibition of human wild type RON using PolyEY as substrate preincubated for 2 hrs followed by ATP addition and measured every 2 mins for […] by spectrophotometric analysis
[16] = target: Serine/threonine-protein kinase A-Raf (Homo sapiens, UniProt P10398); assay: Inhibition of human ARAF preincubated for 2 hrs followed by ATP addition and measured every 2 mins for […] by spectrophotometric analysis
[17] = target: Cytoplasmic tyrosine-protein kinase BMX (Homo sapiens, UniProt P51813); assay: Inhibition of human wild type Bmx using PolyEY as substrate preincubated for 2 hrs followed by ATP addition and measured every 2 mins for […] by spectrophotometric analysis
[18] = Inhibition of human wild type PKA using bio-4xCHKT as substrate preincubated for 2 hrs followed by ATP addition and measured every 2 mins for […] by spectrophotometric analysis
[19] = target: NUAK family SNF1-like kinase 2 (Homo sapiens, UniProt Q9H093); assay: Inhibition of human wild type SNARK using Histon H2B as substrate preincubated for 2 hrs followed by ATP addition and measured every 2 mins for […] by spectrophotometric analysis
[20] = target: Tyrosine-protein kinase ABL1 (Homo sapiens, UniProt P00519); conditions: Sf9, time 2.0 hrs
[21] = target: Macrophage colony-stimulating factor 1 receptor (Homo sapiens, UniProt P07333); assay: Inhibition of human wild type FMS using PolyEY as substrate preincubated for 2 hrs followed by ATP addition and measured every 2 mins for […] by spectrophotometric analysis
TGF-beta receptor type-2 = TGF-beta receptor type-2 (Homo sapiens, UniProt P37173); assay: Inhibition of human wild type TGFbetaR2 using RB-S6P as substrate preincubated for 2 hrs followed by ATP addition and measured every 2 mins for […] by spectrophotometric analysis
SRSF protein kinase 3 = SRSF protein kinase 3 (Homo sapiens, UniProt Q9UPE1); assay: Inhibition of human wild type MSSK1 using RBER-CHKtide as substrate preincubated for 2 hrs followed by ATP addition and measured every 2 mins for […] by spectrophotometric analysis
[22] = system: Tyrosine-protein kinase ABL1 (Homo sapiens), P00519 [T315I]; conditions: time 2.0 hrs
Wee1-like protein kinase = Wee1-like protein kinase (Homo sapiens, UniProt P30291); assay: Inhibition of human wild type WEE1 using Poly(Ala,Glu,Lys,Tyr)6:2:5:1 as substrate preincubated for 2 hrs followed by ATP addition and measured every 2 mins for […] by spectrophotometric analysis
[23] = target: Mitogen-activated protein kinase kinase kinase 5 (Homo sapiens, UniProt Q99683); assay: Inhibition of human wild type ASK1 using RBER-GSK3([…] to […]) as substrate preincubated for 2 hrs followed by ATP addition and measured every 2 mins for […] by spectrophotometric analysis
Chain of Mitogen-activated protein kinase kinase kinase 5 (Q99683 whole entry): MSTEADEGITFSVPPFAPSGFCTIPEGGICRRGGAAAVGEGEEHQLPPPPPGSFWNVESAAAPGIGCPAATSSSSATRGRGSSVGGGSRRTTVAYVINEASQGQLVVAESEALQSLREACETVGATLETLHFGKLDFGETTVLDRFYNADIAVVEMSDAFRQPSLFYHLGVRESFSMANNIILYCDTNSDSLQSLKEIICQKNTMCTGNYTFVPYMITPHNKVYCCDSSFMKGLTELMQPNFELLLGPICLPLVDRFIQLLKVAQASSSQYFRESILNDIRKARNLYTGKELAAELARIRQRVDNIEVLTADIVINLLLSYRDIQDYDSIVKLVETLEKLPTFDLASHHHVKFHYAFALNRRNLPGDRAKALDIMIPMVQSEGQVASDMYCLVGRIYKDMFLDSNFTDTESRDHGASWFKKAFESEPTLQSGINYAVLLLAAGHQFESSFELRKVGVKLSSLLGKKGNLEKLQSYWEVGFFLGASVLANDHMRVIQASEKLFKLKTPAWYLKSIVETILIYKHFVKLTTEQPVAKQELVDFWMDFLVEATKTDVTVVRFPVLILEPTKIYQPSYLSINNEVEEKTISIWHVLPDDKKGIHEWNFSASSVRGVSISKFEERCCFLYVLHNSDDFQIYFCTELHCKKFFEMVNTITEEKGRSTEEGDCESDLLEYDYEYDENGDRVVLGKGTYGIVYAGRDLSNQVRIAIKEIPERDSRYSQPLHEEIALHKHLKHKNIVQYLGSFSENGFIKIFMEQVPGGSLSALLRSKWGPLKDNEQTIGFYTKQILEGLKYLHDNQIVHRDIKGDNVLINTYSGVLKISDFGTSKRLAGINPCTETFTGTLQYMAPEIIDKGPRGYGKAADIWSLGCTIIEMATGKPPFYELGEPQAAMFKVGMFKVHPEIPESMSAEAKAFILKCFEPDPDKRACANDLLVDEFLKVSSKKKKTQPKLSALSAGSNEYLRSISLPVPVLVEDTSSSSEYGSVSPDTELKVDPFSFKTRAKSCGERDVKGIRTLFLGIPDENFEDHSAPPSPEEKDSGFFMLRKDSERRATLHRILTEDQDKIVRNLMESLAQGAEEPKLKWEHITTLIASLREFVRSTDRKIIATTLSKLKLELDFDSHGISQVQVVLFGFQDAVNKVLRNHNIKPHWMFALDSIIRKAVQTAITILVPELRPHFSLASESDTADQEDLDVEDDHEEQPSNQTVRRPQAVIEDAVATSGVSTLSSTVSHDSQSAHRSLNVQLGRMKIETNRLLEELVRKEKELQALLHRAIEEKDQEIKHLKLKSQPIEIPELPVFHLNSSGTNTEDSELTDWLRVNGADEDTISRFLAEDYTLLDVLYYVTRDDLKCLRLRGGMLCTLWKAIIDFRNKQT

[24] = target: Mitogen-activated protein kinase 11 (Homo sapiens, UniProt Q15759); assay: Inhibition of human wild type p38 beta using ATF2 as substrate preincubated for 2 hrs followed by ATP addition and measured every 2 mins for […] by spectrophotometric analysis
[25] = target: Platelet-derived growth factor receptor alpha (Homo sapiens, UniProt P16234); assay: Inhibition of human wild type PDGFR alpha using Poly(Ala,Glu,Lys,Tyr)6:2:5:1 as substrate preincubated for 2 hrs followed by ATP addition and measured every 2 mins for […] by spectrophotometric analysis
Chain of Platelet-derived growth factor receptor alpha (P16234 whole entry): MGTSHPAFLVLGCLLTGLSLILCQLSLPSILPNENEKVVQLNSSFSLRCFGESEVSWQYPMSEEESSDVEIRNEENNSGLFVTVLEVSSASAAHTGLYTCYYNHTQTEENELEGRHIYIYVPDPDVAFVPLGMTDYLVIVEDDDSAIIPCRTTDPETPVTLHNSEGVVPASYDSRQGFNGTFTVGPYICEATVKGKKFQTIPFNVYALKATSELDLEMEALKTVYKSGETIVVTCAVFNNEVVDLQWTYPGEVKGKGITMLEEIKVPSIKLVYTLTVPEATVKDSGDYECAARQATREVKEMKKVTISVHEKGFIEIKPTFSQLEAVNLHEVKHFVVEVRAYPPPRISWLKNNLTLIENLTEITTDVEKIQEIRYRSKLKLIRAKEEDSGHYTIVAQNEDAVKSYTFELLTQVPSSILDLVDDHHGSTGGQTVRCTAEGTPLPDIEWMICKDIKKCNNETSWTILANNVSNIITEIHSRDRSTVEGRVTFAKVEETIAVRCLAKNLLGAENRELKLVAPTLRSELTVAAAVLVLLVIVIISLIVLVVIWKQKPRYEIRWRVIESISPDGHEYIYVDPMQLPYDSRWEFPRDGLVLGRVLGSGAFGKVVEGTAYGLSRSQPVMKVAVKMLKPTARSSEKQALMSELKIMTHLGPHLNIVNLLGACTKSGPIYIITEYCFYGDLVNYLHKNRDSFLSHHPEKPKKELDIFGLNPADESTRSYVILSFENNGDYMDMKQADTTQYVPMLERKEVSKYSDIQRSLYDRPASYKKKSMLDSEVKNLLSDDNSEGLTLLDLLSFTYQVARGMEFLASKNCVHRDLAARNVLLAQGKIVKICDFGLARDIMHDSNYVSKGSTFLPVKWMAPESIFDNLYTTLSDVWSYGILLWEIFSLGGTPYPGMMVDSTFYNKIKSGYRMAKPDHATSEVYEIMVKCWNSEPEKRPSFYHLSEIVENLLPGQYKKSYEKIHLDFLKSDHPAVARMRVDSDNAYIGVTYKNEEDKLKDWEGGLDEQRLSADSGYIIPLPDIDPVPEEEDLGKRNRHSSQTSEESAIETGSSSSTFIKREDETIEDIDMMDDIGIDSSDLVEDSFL

CNC(=O)c1cc(Oc2ccc(NC(=O)Nc3cc(C(C)(C)C)nn3-c3ccc4ncccc4c3)c(F)c2)ccn1 [REBASTINIB]
IC50 [1]: > 1000 nM | IC50 [2]: > 1000 nM | IC50 (Aurora kinase A): > 5000 nM | IC50 [3]: > 1000 nM | IC50 [4]: 110 nM | Activity [5]: Toxic | IC50 [6]: > 1000 nM | IC50 [7]: 270 nM | IC50 [8]: > 1000 nM | IC50 [9]: > 1000 nM | IC50 [10]: > 1000 nM | IC50 [11]: 370 nM | IC50 [12]: > 1000 nM | IC50 [13]: 230 nM | IC50 [14]: > 1000 nM | IC50 [15]: 300 nM | IC50 [16]: 230 nM | IC50 [17]: 200 nM | IC50 [18]: > 1000 nM | IC50 [19]: > 1000 nM | T1/2 [20]: 6.7 h | IC50 [21]: 620 nM | IC50 (TGF-beta receptor type-2): > 1000 nM | IC50 (SRSF protein kinase 3): > 1000 nM | T1/2 [22]: 8.97 h | IC50 (Wee1-like protein kinase): > 1000 nM | IC50 [23]: > 1000 nM | IC50 [24]: 790 nM | IC50 [25]: 70 nM

— ChEMBL document CHEMBL5678804 (Cancer Cell, 2011)
